Experiment: Human HepG2 cell viability assay in 384 well format
Format: toxicity, cell-based
Set-up: dose 125 nL, time 70.5 hour; cytotoxicity at 70.5 h: concentration not given beside the values
Conditions: HepG2 cells, read-out: Inhibition

| SMILES | cytotoxicity at 70.5 h |
| --- | --- |
| OC(CN1CCN(CC2CCCCC2)CC1)c1ccccc1 (configuration not stated) | -8.48% |
| COc1cccc(NC(=O)NC(C)c2ccc3c(c2)CC(=O)N3)c1 (configuration not stated) | -3.09% |
| Cn1ccnc1CNC(=O)Nc1ccc(OC2CCC2)c(F)c1 | 20% |
| O=C(Cc1ccon1)NC1CC2(CCC2)Oc2ccccc21 (configuration not stated) | 4.31% |
| CC(=O)NCCCOc1c(C)cccc1Cl | -2.28% |
| CC(=O)NCCOc1c(C)cccc1C | -4.39% |
| O=C(CN1CCN(CCO)CC1)NCCc1c(F)cccc1F | -1.38% |
| Cc1cccc(CCC(=O)NCC2CCCN2c2cccnn2)c1 (configuration not stated) | 5.29% |
| O=C(CNCC1CCCN1c1cccnn1)NCCc1cccs1 (configuration not stated) | -1.9% |
| Cc1ccccc1CN1CCCN(CCN2CCOC2=O)CC1 | -1.61% |
| CN(CCCNC(=O)CN1CCS(=O)(=O)CC1)c1ccccc1 | -6.59% |
| CCC(C)NC(=O)c1ccc(CNC(=O)CCC(C)C)cc1 (configuration not stated) | 15.4% |
| CC1CCCCN1Cc1nc(C2CC2)no1 (configuration not stated) | -4.41% |
| CN(Cc1ccccc1OC(F)(F)F)C(=O)C1CCCN(C(N)=O)C1 (configuration not stated) | -6.37% |
| COCCN(C)C(=O)Nc1ccc(C(=O)NCCC(=O)OC)cc1 | -8.51% |
| CCCN(C)C(=O)Nc1ccc(C(=O)NCCC(=O)OC)cc1 | -6.01% |
| COC(=O)C1CN(CC(=O)Nc2cc(F)ccc2F)c2ccccc21 (configuration not stated) | -7.21% |
| COC(=O)C1CN(CC(=O)Nc2ccccc2Cl)c2ccccc21 (configuration not stated) | -5.02% |
| O=C(NCc1cccc(N2CC=CC2)c1)NCC(F)(F)F | -2.26% |
| O=C(NCc1cccc(N2CC=CC2)c1)NC1CC1 | -2.22% |
| CC(C)(C)OC(=O)NCC1CCN(C(=O)c2ccc(F)cc2F)C1 (configuration not stated) | -4.74% |
| CC(C)(C)OC(=O)NCC1CCN(C(=O)c2ccccc2O)C1 (configuration not stated) | -0.832% |
| Cc1cnc(CNC(=O)NCCOc2ncccc2Cl)s1 | -3.34% |
| CC(C)c1cc(CNC(=O)NCc2cccc(N3CC=CC3)c2)on1 | -3.2% |
| Cc1cnc(CCNC(=O)NCCOc2ncccc2Cl)s1 | -2.69% |

| SMILES | cytotoxicity at 70.5 h |
| --- | --- |
| Cc1cnc(NC(=O)NCCOc2ncccc2Cl)s1 | -4.99% |
| CN(C)c1ncc(NC(=O)N2CCC(CN3CCCC3)C2)cn1 (configuration not stated) | 0.1% |
| CCC(C)(NCC(=O)NC(=O)NC)c1nccs1 (configuration not stated) | -4.72% |
| Cc1ccccc1-n1cnnc1SCCOCC1CCCO1 (configuration not stated) | -5% |
| COC(=O)N1CCC(Nc2cccc(F)c2C(C)=O)CC1 | -10.1% |
| CC(C)(C)S(=O)(=O)CCNC1CSCCc2ccccc21 (configuration not stated) | 27.7% |
| CCN(CC(F)(F)F)C(=O)C1CCCN(Cc2cscn2)C1 (configuration not stated) | 26.1% |
| Oc1ccc2oc3c(c2c1CN1CCOCC1)CCCC3 | -8.06% |
| CNC(=O)c1cccc(NC(=O)NCc2ccccc2)c1C | -10.1% |
| CS(=O)(=O)N1CCN(Cc2c(O)ccc3oc4c(c23)CCCC4)CC1 | -10.3% |
| Cc1nn(C)c(N2CCOCC2)c1CNCC1CCN(C2CC2)C1 (configuration not stated) | 15.8% |
| CC(=O)NCC1CN(c2ccc3c(Cl)ccnc3c2F)CCO1 (configuration not stated) | -7.29% |
| COc1ccc2cccc(CC(=O)NCCc3n[nH]c(=O)[nH]3)c2c1 | -8.41% |
| COc1ccc2cccc(CC(=O)NCCCc3n[nH]c(C)n3)c2c1 | 4.93% |
| O=S(=O)(NCCN1CC=CC1)c1cncc(Cl)c1 | -0.531% |
| O[C@@H]1CCN(c2ccc3c(Cl)ccnc3c2F)C1 | -8.44% |
| Cn1ccnc1CCNC(=O)NCCC1CCCCO1 (configuration not stated) | -2.69% |
| CC(C)c1nnc(NCc2ccsc2)o1 | 3.33% |
| Cn1ccnc1SCC(=O)NCCC1CCCO1 (configuration not stated) | 31.2% |
| CCOc1cc(C)nc(N2CCN(C(C)c3nc(C)no3)CC2)n1 (configuration not stated) | -1.64% |
| COCC1CN(c2ccc3c(Cl)ccnc3c2F)CCO1 (configuration not stated) | 20.2% |
| CCc1nc(CNC2CCCc3c2cnn3CC)cs1 (configuration not stated) | 6.14% |
| CS(=O)(=O)NCCCNc1ccc(C(F)(F)F)cc1C#N | -3.55% |
| Cc1ncc2c(n1)CCN(C(C(N)=O)c1ccccc1)C2 (configuration not stated) | -2.66% |
| CCOC(=O)c1nc(CN2CCN(C(=O)NC3CCCCC3)CC2)cs1 | -7.73% |

| SMILES | cytotoxicity at 70.5 h |
| --- | --- |
| O=C(c1c[nH]c2ncccc12)N(Cc1ccco1)C1CCCC1 | -3.94% |
| CCc1ncc2c(n1)CN(C(C(N)=O)c1ccccc1)CC2 (configuration not stated) | -3.45% |
| N#Cc1cnc2ccccc2c1N1CCNCC1 | -1.59% |
| CC(C)Cn1cnnc1C1CCCN1C(=O)OC(C)(C)C (configuration not stated) | -0.156% |
| CCN(C(=O)CNc1cc(C)c(F)cc1C(N)=O)C1CC1 | 0.591% |
| Cc1cc(NCC(=O)N(C)C(C)c2cccs2)c(C(N)=O)cc1F (configuration not stated) | 1.44% |
| CCNC(=O)NC1CCCN(c2ccc(C)cc2)C1=O (configuration not stated) | 0.44% |
| Cc1cc(NCC(=O)N(C)Cc2cccs2)c(C(N)=O)cc1F | 0.052% |
| O=C(NC(CN1CCCC1)c1ccccc1)c1c(O)cc(F)cc1F (configuration not stated) | -1.92% |
| O=C1CC(CNc2cncc(Br)c2)c2ccccc2N1 (configuration not stated) | 3.03% |
| NC(=O)CN(C(=O)c1c[nH]c2ncccc12)C1CCCC1 | 3.16% |
| Cc1cnn(-c2cccc(N3CCCC3)n2)c1 | -1.27% |
| CCN(CC)C(=O)Cc1csc(C(C)C)n1 | 14% |
| CC(=O)N1CCC[C@H]1C(=O)N(C)CCCOc1ccccc1 | -2.16% |
| O=C(Nc1ccccc1OC1CCOC1)c1[nH]nc2c1CCCC2 (configuration not stated) | 8.78% |
| COc1ccc(F)cc1CSCC(=O)N(C)C1CC1 | -0.442% |
| CCS(=O)(=O)c1ccc2c(c1)OCCO2 | -0.357% |
| COc1ccc(C(=O)N(c2ccc(OC)c(F)c2)C(C)C)cn1 | -2.91% |
| CC(c1nc(C2CC2)no1)N(C)Cc1cccc(F)c1 (configuration not stated) | -2.41% |
| O=C(NCc1cccnc1)N1CCSCC1CCO (configuration not stated) | 13.2% |
| O=C(Nc1nncs1)c1ccc(-n2cnnn2)cc1 | 1.5% |
| Cc1nn(C)c(Cl)c1CNCCOc1ccc2c(c1)OCO2 | 7.39% |
| Cn1cnc2c1CCN(CC(=O)N(Cc1ccccc1F)C1CC1)C2 | -6.36% |
| CC(C)c1nnc2n1CCN(C(=O)c1ccccc1OCC1CC1)C2 | -4.61% |
| COc1ccc2c(c1)C(=O)N(C)C1(CCN(CC3CC3)CC1)N2 | 3.49% |

| SMILES | cytotoxicity at 70.5 h |
| --- | --- |
| COCCS(=O)(=O)Nc1ccc(-n2nccc2C(F)(F)F)cc1 | 18.2% |
| Cc1cccc(C)c1OCC(=O)Nc1cccn(C)c1=O | -4.44% |
| COCCNC(=O)NCCc1cccc(OC)c1O | 0.934% |
| Cn1cnc2c1CCN(CC(=O)N(Cc1ccsc1)C1CC1)C2 | 0.271% |
| O=C(NCc1ccncc1)N1CCSCC1c1ccc(Cl)cc1 (configuration not stated) | 3.04% |
| N#Cc1cccnc1NCCC1CCN(CC(F)(F)F)CC1 | -5% |
| CSc1ccc(NC(=O)NCC(O)C(C)C)cc1F (configuration not stated) | 4.17% |
| CSc1ccc(NC(=O)NCC(O)C2CC2)cc1F (configuration not stated) | 7.73% |
| Cn1cnn(CC(=O)NCc2ccccc2F)c1=O | 20.6% |
| Cn1cnn(Cc2ccccc2F)c1=O | 2.33% |
| O=C1C(Nc2ncccn2)CCN1c1ccccc1OC(F)F (configuration not stated) | 1.42% |
| COc1ccccc1N1CCCC(Nc2ncccn2)C1=O (configuration not stated) | -3.79% |
| COc1cccc(CCNC(=O)NC(C)C)c1O | 9.97% |
| c1ccc(-c2nnc3ccc(N4CCC5(CCOC5)C4)nn23)cc1 (configuration not stated) | 5.72% |
| CN(C)S(=O)(=O)Nc1ccc(-n2nncc2C(F)(F)F)cc1 | 3.32% |
| O=C(Cc1ccc(-n2cnnn2)cc1)Nc1nncs1 | -3.13% |
| CN(CCO)C(=O)Nc1ccn(-c2cccc(C(F)(F)F)c2)n1 | -2.71% |
| COCCNC(=O)Nc1ccn(-c2cccc(C(F)(F)F)c2)n1 | 9.44% |
| CC(C)C(NC(=O)c1ccccc1)C(=O)N1CCC2(CC1)OCCO2 (configuration not stated) | 17.2% |
| CN(CCOc1ccc(Br)cc1)Cc1cscn1 | 1.92% |
| CN(Cc1ccsc1)C(=O)CN1CCc2c(ncn2C)C1 | 17.8% |
| CCN(CCS(=O)(=O)CC)CC1CCCO1 (configuration not stated) | -3.45% |
| CCc1nc(CN(C)Cc2nnc(-c3cccs3)o2)cs1 | -3.41% |
| Cc1nsc(NC2CCN(c3ccccc3OC(F)F)C2=O)n1 (configuration not stated) | 9.92% |
| Cc1cc(C)cc(OCCN(C)Cc2cscn2)c1 | 0.706% |

| SMILES | cytotoxicity at 70.5 h |
| --- | --- |
| COc1cccc2c1N(Cc1noc(C(C)(C)C)n1)CCC2 | 18.5% |
| COCCN(C)C(=O)Nc1ccn(-c2cccc(C(F)(F)F)c2)n1 | -2.62% |
| CC(O)CN(C)C(=O)Nc1ccn(-c2cccc(C(F)(F)F)c2)n1 (configuration not stated) | -3.19% |
| CCN(CC(=O)NCCc1nc(C)no1)Cc1ccc(Cl)cc1 | -2.02% |
| CC(C)(C)OC(=O)N1CCC[C@H](NCC2CCOCC2)C1 | -0.369% |
| CCC(=O)N1CCC(NC2CCCC2)C1 (configuration not stated) | -7.41% |
| Cn1ncc2c(=O)[nH]c(CN3CCCc4cc(F)ccc43)nc21 | -23.1% |
| Cc1cc(F)c2c(c1)CCCN2Cc1nc2c(cnn2C)c(=O)[nH]1 | -28.1% |
| CCN(CC)Cc1ccc(C(=O)NC2CCc3cc(F)ccc32)o1 (configuration not stated) | -19% |
| CCN(CC)Cc1ccc(C(=O)NC2CCc3cc(Cl)ccc32)o1 (configuration not stated) | 21.2% |
| CC(C)N(Cc1ccccc1)C(=O)NCCNC(=O)c1cccnc1 | -13.6% |
| NC(=O)CC1CCCCN1C(=O)c1ccc2cc[nH]c2c1 (configuration not stated) | 21.6% |
| O=C(NCc1ccccn1)NCC(O)c1ccccc1C(F)(F)F (configuration not stated) | -5.77% |
| CC(C)CNC(=O)c1[nH]nc(C2CC2)c1Br | -4.78% |
| CC(C)(CNc1c(C#N)cnc2ccc(Cl)cc12)C(N)=O | -17.7% |
| CN(C)C(CNC(=O)c1[nH]nc(C2CC2)c1Br)C1CC1 (configuration not stated) | -5.45% |
| Cc1cc(C2CCCN(CC(=O)N3CCCc4ccccc43)C2)n[nH]1 (configuration not stated) | -9.66% |
| Cc1c(Br)cccc1C(=O)Nc1cc(C(N)=O)n(C)c1 | -6.66% |
| CCc1csc(NC(=O)Nc2c(C)n[nH]c2C)n1 | -4.31% |
| CS(=O)(=O)CC1(CNc2cc(C#N)c3cc(Cl)ccc3n2)CC1 | -6.39% |
| CC(C)c1cc(=O)[nH]c(C(C)(C)N)n1 | -3.05% |
| N#Cc1cnc2ccccc2c1N1CCN(CCC(=O)O)CC1 | 1.24% |

Source: ChEMBL document CHEMBL3507680, “University of Dundee, Gates Library screen for HepG2 cell viability”
